Like-named read-outs stand apart in the source and are kept apart here.
Tests used:
[1] = test system: paclitaxel (PTX)-treated mice; assay: Paclitaxel-induced peripheral neuropathy model; type: in vivo; settings: for mechanical pain (mechanical hyperalgesia, Von frey hair test), chronic administration / thermal hyperalgesia (Hargreaves test), chronic administration: 8abd 5 and 10 mg/kg p.o., duloxetine 10 mg/kg, 16 days
C57Bl/6 mice [2] = assay: Hargreaves assay for thermal analgesia after intracerebroventricular administration; type: in vivo; settings: 10 nmol
human KOR [3] = target: T1, human KOR (Homo sapiens, UniProt P41145); assay: β-arrestin2 Tango assay in HTLA cells transiently transfected with human KOR; type: cell-based; settings: Table 2, KOR; for EC50: read-out: B-arrestin Tango Assay (pEC50) (converted)
Target sequence in this assay (P41145 whole entry, added parts left off): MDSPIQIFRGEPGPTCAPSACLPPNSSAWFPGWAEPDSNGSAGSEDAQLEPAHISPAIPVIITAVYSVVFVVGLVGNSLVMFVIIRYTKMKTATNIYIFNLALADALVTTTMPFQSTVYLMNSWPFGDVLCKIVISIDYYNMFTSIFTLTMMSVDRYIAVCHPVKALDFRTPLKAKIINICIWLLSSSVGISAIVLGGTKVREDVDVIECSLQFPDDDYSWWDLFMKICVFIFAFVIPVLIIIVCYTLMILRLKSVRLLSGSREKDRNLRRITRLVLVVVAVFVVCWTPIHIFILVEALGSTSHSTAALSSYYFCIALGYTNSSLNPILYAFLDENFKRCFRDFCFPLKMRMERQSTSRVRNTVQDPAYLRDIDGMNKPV

DOR = DOR (Homo sapiens, UniProt P41143); assay: GloSensor assay at DOR; type: cell-based; settings: given as Log IC50 (negative values)
SD rats = assay: Neuropathic pain induced by chronic constriction injury (CCI) of sciatic nerve; type: in vivo, rat
C57Bl/6 mice [4] = assay: Tail flick assay for analgesia; type: in vivo
MOR = MOR (Homo sapiens, UniProt P35372); assay: GloSensor assay at MOR; type: cell-based; settings: given as Log IC50 (negative values)
human KOR [5] = target: T1, human KOR; assay: GloSensor assay, Gi-mediated cAMP inhibition in HEK-293T cells transfected with human KOR; type: cell-based; settings: for G-Protein Bias factor (IC50 -Glosensor/- EC50 - Tango): KOR, GloSensor versus Tango;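 on agonist at KOR (pIC50): value taken from a statement in the text not a table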
Target sequence in this assay (P41145 whole entry): as the sequence (P41145 whole entry, added parts left off) above

[6] = 8abd 10 mg/kg/day p.o., U50488 5 mg/kg/day i.p., 7 days, tested 16 hours after drug administration
[7] = Table 2, KOR, read-out: GloSensor Assay (pIC50) (converted)
[8] = given as Log IC50 (negative values), agonist activity, inhibition of FSK-stimulated cAMP, read-out: GloSensor Assay (Log IC50) KOR (converted)
[9] = read-out: agonist at KOR (pIC50) (converted)

Sequence of DOR (P41143 whole entry): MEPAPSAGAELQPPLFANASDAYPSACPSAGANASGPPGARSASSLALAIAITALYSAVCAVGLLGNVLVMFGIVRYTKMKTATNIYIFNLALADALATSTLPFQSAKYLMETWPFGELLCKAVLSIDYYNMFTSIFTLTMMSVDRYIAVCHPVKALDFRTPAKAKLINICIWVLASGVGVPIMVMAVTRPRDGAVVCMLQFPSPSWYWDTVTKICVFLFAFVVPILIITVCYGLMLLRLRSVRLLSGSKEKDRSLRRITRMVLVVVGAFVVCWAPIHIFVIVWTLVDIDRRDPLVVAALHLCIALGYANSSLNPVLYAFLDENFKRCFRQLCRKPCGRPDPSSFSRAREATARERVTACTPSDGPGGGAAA
Sequence of MOR (P35372 whole entry): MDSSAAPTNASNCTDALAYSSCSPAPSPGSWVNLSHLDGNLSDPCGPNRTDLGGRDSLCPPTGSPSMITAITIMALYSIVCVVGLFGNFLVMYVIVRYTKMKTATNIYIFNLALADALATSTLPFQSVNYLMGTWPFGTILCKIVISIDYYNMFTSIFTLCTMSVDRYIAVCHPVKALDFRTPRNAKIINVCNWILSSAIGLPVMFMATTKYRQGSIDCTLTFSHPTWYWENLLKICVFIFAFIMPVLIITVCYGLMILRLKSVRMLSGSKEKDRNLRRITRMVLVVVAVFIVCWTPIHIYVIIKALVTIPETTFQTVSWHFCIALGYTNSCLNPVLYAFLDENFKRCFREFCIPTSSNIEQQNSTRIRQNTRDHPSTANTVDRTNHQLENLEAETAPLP

| Compound | mechanical pain (mechanical hyperalgesia, Von frey hair test), chronic administration [1] | thermal hyperalgesia (Hargreaves test), chronic administration [1] | EC50 (human KOR [3]) | IC50 (DOR) | IC50 (MOR) | G-Protein Bias factor (IC50 -Glosensor/- EC50 - Tango) (human KOR [5]) | IC50 (human KOR [5]; [7]) | IC50 (human KOR [5]; [8]) | IC50 (human KOR [5]; [9]) | other results |
| --- | --- | --- | --- | --- | --- | --- | --- | --- | --- | --- |
| CNCC[C@H](Oc1cccc2ccccc12)c1cccs1 [duloxetine, reference compound] | significantly improved | significantly improved | – | – | – | – | – | – | – | – |
| Fc1ccc(-n2c[n+]3ccc4c5ccccc5[nH]c4c3c2-c2ccc(Br)cc2)cc1.[Cl-] [8abd, 1-(4-Bromophenyl)-2-(4-fluorophenyl)-2,11-dihydrolmidazo[1′,5′:1,2]pyrido[3,4-b]indol-4-ium chloride] | significantly improved | significantly improved | 224 nM | > 10000 nM | > 10000 nM | 2.33 | 1.05 nM | 5.01 nM | < 31.6 nM | analgesic activity (paw withdrawal latency) (C57Bl/6 mice [2]): exhibited analgesic activity; CCI-induced thermal hyperalgesia, acute administration (SD rats; 8abd 10 mg/kg p.o., U50488 5 mg/kg i.p., Hargreaves): robustly inhibited; CCI-induced mechanical pain, acute administration (SD rats; 8abd 10 mg/kg p.o., U50488 5 mg/kg i.p., von frey): robustly inhibited; CCI-induced mechanical pain, sub-chronic administration (SD rats; [6]): significantly blocked; CCI-induced thermal hyperalgesia, sub-chronic administration (SD rats; [6]): significantly blocked; tail flick latency time (C57Bl/6 mice [4]; 10 mg/kg or 5 mg/kg p.o., in comparison to vehicle treated mice): significantly increased; duration of the analgesic effect (C57Bl/6 mice [4]; 8abd 5 and 10 mg/kg p.o., U50488 5 mg/kg i.p.): comparable to U50488; analgesic effect in presence of selective KOR antagonist Norbinaltrophamine (NBN) (C57Bl/6 mice [4]; NBN 5 mg/kg i.p. (legend: 10 mg/kg i.p.)): completely blocked; improvement in both pain behaviors relative to duloxetine ([1]; chronic administration): better improvement in both pain behaviors as compared to duloxetine |
| Fc1ccc(-n2c[n+]3ccc4c5ccccc5[nH]c4c3c2-c2ccccc2Br)cc1.[Cl-] [8acd, 1-(2-Bromophenyl)-2-(4-fluorophenyl)-2,11-dihydroimidazo[1′,5′:1,2]pyrido[3,4-b]indol-4-ium chloride] | – | – | 1580 nM | > 10000 nM | > 10000 nM | 3 | 1.58 nM | 1.58 nM | < 31.6 nM | – |
| 2-(4-Fluorophenyl)-1-(4-methoxyphenyl)-2,11-dihydroimidazo[1′,5′:1,2]pyrido[3,4-b]indol-4-ium [8aod] | – | – | – | – | – | 1.68 | – | – | – | B-arrestin Tango Assay (pEC50) (human KOR [3]): 6.22; GloSensor Assay (Log IC50) DOR (DOR): >−5; GloSensor Assay (Log IC50) MOR (MOR): >−5; GloSensor Assay (pIC50) (human KOR [5]; Table 2, KOR): 7.9; GloSensor Assay (Log IC50) KOR (human KOR [5]; given as Log IC50 (negative values), agonist activity, inhibition of FSK-stimulated cAMP): −7.9 |
| Clc1ccc(-n2c[n+]3ccc4c5ccccc5[nH]c4c3c2-c2ccccc2Cl)cc1.[Cl-] [8aec, 1-(2-Chlorophenyl)-2-(4-chlorophenyl)-2,11-dihydroimidazo[1′,5′:1,2]pyrido[3,4-b]indol-4-ium chloride] | – | – | 135 nM | > 10000 nM | 501 nM | 1.23 | 7.94 nM | 7.94 nM | < 31.6 nM | – |
| Brc1ccc(-c2c3c4[nH]c5ccccc5c4cc[n+]3cn2-c2cccc(Br)c2)cc1.[Cl-] [8abe, 2-(3-Bromophenyl)-1-(4-bromophenyl)-2,11-dihydroimidazo[1′,5′:1,2]pyrido[3,4-b]indol-4-ium chloride] | – | – | 676 nM | > 10000 nM | > 10000 nM | 1.72 | 12.9 nM | 1.26 nM | < 31.6 nM | – |

— patent publication US20250368645A1, “BETA CARBOLINE ANALOGUES AS SELECTIVE AND BIASED KAPPA OPIOID RECEPTORS AGONISTS FOR TREATING VARIOUS ASSOCIATED PATHOPHYSIOLOGICAL CONDITIONS” (COUNCIL OF SCIENTIFIC AND INDUSTRIAL RESEARCH, priority 2022, published 2025)
